“Also recorded” adds a separate entry of the source.
Legend:
cellular αVβ6 = molecular target: T1, cellular αVβ6 (Homo sapiens, UniProt P06756+P18564); experiment: Screening for integrin specificity by flow cytometry (A375Pβ6 vs A375Ppuro cells); assay type: cell-based
T1 construct: A375puro endogenously express the RGD directed integrins α5β1, αVβ3, αVβ5 and αVβ8; expressed in transfected cells; host or cells: A375Pβ6 (αVβ6-positive), with A375Ppuro as the αVβ6-negative control
Method: Purified scFv were tested for specificity for αVβ6 by flow cytometry using the isogenic pairs of cell lines, […] and A375Ppuro, which express similar levels of four RGD-binding integrins (αVβ3, αVβ5, αVβ8, α5β1) but only […] express αVβ6. Briefly, cells were detached with trypsin/EDTA, rinsed twice in ice-cold wash buffer (0.1% BSA/DMEM/0.1% NaN3) and 2×10^5 cells re-suspended in 50 μl of wash buffer per sample. In between all incubation steps, all samples were washed twice with wash buffer unless otherwise stated. Cells were incubated on ice for 1 hr with 0.1 or 1 uM purified scFv of peptide, washed twice. For scFv, cells were then incubated for 1 hr on ice with mouse anti-Myc antibody (clone 9E10, Santa Cruz) at 1:100. After washing, bound antibody was detected with anti-mouse IgG-Alexaflour 488 (1:250 for 1 h; Molecular Probes), on ice. Bound VH-CDR3 derived peptide were detected by rabbit anti-biotin IgG (1:200), followed by anti-rabbit IgG-Alexafluor 488 (1:250; Molecular Probes). Cells were analysed using the FACSCalibur (Beckton Dickinson). Cell expression of αVβ6 integrin was detected with mouse monoclonal antibody (clone 10D5, 10 μg/ml; Millipore) and non-specific (control) binding with non-immune class matched IgG.

αVβ6 = molecular target: T2, αVβ6 (Homo sapiens, UniProt P06756+P18564); experiment: Inhibition of biotinylated-A20FMDV2 binding to αVβ6 expressing cells; assay type: cell-based; settings: scFv or peptide 0.1 and 1.0 μM; biotinylated A20FMDV2 10 nM
T2 construct: A375puro endogenously express the RGD directed integrins α5β1, αVβ3, αVβ5 and αVβ8; expressed in transfected cells; host or cells: αVβ6-expressing cells; The method paragraph names no line
T2 sequence (P06756 31-889 limits assumed): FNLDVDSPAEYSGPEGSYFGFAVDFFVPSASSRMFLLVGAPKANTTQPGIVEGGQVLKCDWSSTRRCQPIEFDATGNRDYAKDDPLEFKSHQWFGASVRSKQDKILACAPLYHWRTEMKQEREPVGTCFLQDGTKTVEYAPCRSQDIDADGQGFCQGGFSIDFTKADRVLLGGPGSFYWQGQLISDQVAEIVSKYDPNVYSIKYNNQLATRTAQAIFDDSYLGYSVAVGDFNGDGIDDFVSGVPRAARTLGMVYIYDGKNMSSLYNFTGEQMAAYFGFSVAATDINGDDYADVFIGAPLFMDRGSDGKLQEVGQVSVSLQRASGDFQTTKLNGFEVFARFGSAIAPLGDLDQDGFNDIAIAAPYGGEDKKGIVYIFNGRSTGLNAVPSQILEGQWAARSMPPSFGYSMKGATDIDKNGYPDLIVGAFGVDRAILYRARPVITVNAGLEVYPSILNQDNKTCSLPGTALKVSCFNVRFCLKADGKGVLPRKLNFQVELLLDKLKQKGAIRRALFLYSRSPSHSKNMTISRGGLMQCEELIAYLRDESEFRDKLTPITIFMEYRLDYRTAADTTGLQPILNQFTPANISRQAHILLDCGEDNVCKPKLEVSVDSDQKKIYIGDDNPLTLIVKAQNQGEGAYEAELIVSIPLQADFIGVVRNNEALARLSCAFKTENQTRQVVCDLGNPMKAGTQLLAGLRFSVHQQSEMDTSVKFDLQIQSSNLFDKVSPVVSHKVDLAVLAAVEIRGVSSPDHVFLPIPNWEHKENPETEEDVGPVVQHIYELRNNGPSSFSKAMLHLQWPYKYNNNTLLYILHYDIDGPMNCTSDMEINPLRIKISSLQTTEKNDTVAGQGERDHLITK
T2 sequence (P06756 891-1048 limits assumed): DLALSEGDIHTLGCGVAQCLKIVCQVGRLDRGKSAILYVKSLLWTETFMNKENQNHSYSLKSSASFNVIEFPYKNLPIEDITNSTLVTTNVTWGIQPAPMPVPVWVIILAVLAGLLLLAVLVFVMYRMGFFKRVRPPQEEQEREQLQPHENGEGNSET
T2 sequence (P18564 22-788): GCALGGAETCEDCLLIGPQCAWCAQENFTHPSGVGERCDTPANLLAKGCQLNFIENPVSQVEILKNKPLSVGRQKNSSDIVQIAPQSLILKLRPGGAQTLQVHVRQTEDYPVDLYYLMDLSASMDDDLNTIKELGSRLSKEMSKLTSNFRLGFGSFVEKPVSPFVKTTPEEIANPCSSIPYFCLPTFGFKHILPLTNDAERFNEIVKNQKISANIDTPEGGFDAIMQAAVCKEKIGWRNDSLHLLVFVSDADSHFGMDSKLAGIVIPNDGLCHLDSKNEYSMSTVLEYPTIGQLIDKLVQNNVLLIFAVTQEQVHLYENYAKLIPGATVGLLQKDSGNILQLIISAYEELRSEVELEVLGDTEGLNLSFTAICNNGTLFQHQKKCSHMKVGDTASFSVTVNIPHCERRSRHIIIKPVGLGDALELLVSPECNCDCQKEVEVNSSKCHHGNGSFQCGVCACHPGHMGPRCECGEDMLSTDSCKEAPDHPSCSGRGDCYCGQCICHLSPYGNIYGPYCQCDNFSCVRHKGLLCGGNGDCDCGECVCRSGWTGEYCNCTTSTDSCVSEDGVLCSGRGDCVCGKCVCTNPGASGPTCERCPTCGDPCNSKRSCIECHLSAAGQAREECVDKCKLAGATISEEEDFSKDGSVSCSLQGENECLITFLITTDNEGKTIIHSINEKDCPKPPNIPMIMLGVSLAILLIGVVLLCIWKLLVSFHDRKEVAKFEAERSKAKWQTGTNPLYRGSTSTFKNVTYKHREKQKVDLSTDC

[1] = test system: αVβ6-dependent adhesion of carcinoma cells to immobilised fibronectin; experiment: Picogreen adhesion assay on fibronectin; assay type: cell-based, human; settings: fibronectin 10 ug/ml
Method: All adhesion assays were performed in quadruplicate and repeated at least 2-3 times. In a 96-well plate format, test wells were coated with Fibronectin (10 ug/ml/PBS) and negative control wells were coated with 0.1% BSA (bovine serum albumin)/PBS. After incubation at 37° C. for 1 hour, plates were washed in PBS thwice and blocked with 0.1% BSA/PBS for 30 mins at 37° C. Following a PBS rinse, cells were seeded into the wells, the plate resting on ice to avoid dehydration and to ensure an initial uniform temperature for the experiment. Purified scFv or peptide was added (25 ul) to the wells at the desired concentrations, before adding 1.5×10^4 cells (25 ul) per well. In some experiments, cells (1.5×10^4) were pre-treated with β1 blocking antibody AIIB2 at 10 ug/ml before seeding into test wells. To determine percentage adhesion, standard curves were generated by plating 0-2.5×10^4 cells in separate wells. After incubating plates at 37° C. for 30′ plates were washed twice in 1 mM CaCl2/0.5 mM MgCl2/PBS and transferred into −80° C. for 15 mins. Adherent cells were quantified using a Picogreen kit (Invitrogen) and analysed on a fluorescence reader (FLUOstar Optima, BMG Labtech Ltd, Bucks, UK).

αVβ6-expressing cells = experiment: Internalisation assay (confocal microscopy); assay type: cell-based, human; settings: for intracellular localisation after incubation: 37° C. for 45 minutes, αVβ6-expressing cells; for cellular internalisation in αVβ6-expressing cells: 37° C., 0 and 45 minutes
Method: In 24-well culture plates, 2×10^4 cells (DX3puro, DX3β6 or VB6) were seeded onto 13 mm diameter glass coverslips and allowed to incubate overnight at 37° C. in growth medium. Cells were washed thwice in serum free medium (SFM) and then scFv (4 uM) or biotinylated-CDR3-peptide (100 nM) diluted in SFM added on ice for 10 mins. After two ice-cold washes and a further 10 mins on ice with mouse anti-biotin antibody (10 ug/ml) pre-warmed media containing 10% FCS was added to the cells and incubated at 37° C. At 10 min intervals between 0-60 mins, cells were fixed in 2% HCHO in PBS and permeabilised with 0.1% TritonX-100 (PBS) for 3 mins. scFv was detected with mouse anti c-myc (1:100 dilution, clone 9E10; 30 mins, ambient temperature) and followed by while peptides were detected by rabbit anti-biotin IgG (1:200). Both peptide and scFv detected with anti-mouse Alexa488 for 30′. Nuclei were counter-labelled with 4′,6-diamidino-2-phenylindole (DAPI), coverslips mounted with Mowiol and samples examined by confocal microscopy (Zeiss LSM510, Welwyn Garden City).

T1 sequence (P06756 31-889 limits assumed): as the sequence (P06756 31-889 limits assumed) above
T1 sequence (P06756 891-1048 limits assumed): as the sequence (P06756 891-1048 limits assumed) above
T1 sequence (P18564 22-788): as the sequence (P18564 22-788) above

EPRGDLRTLAAREKRNFNETLARLQEKGI (Peptide sequence comprising RGD motif followed by a C-terminal alpha-helix or 3(10)-helix) [D25p]
binding to αVβ6-expressing cells (flow cytometry) (cellular αVβ6): αVβ6-specific binding
inhibition of binding of A20FMDV2 peptide to cellular αvβ6 (αVβ6): dose-dependent inhibition
inhibition of αVβ6-dependent adhesion of carcinoma cells to immobilised fibronectin [1]: inhibited; also recorded: significant concentration-dependent inhibition
intracellular localisation after incubation (αVβ6-expressing cells): nuclear localisation was not seen
cellular internalisation in αVβ6-expressing cells (αVβ6-expressing cells): Internalisation
cellular internalisation in αVβ6-negative cells (αVβ6-expressing cells): No peptide internalization was observed

QPRGDLRELAARSEAQLQEKGI (Peptide sequence comprising RGD motif followed by a C-terminal alpha-helix or 3(10)-helix) [D34p]
binding to αVβ6-expressing cells (flow cytometry) (cellular αVβ6): αVβ6-specific binding
inhibition of binding of A20FMDV2 peptide to cellular αvβ6 (αVβ6): dose-dependent inhibition
inhibition of αVβ6-dependent adhesion of carcinoma cells to immobilised fibronectin [1]: inhibited; also recorded: significant concentration-dependent inhibition
intracellular localisation after incubation (αVβ6-expressing cells): nuclear localisation was not seen
cellular internalisation in αVβ6-expressing cells (αVβ6-expressing cells): Internalisation
cellular internalisation in αVβ6-negative cells (αVβ6-expressing cells): No peptide internalization was observed
